Earlier results, collected in patent EP3021668B1, “EMULSIFIABLE CONCENTRATE COMPRISING PESTICIDE, ALKYL LACTATE, FATTY AMIDE AND ACETOPHENONE” (BASF SE, priority 2013, dated 2015).

Tests used:
[1] = at 20 °C
[2] = pure solvents; according to the Annex III of European Union Directive 67/548/EEC

| SMILES | soluble in water [1] | eye toxicity classification [2] |
| --- | --- | --- |
| Cn1cc(C(=O)Nc2ccccc2-c2cc(F)c(F)c(F)c2)c(C(F)F)n1 [fluxapyroxad] | about 4 mg/l | – |
| CCCC[C@H](CC)COC(=O)C(C)O (stereo partly drawn) [(S)-2-ethylhexyl lactate] | – | R36 "Irritating to eyes" |
| CC(=O)c1ccccc1 [acetophenone] | – | R36 "Irritating to eyes" |
| COC(=O)N(OC)c1ccccc1COc1ccn(-c2ccc(Cl)cc2)n1 [pyraclostrobin] | about 2 mg/l | – |
